One data set deals with T1, mouse IL-17A (Mus musculus, UniProt Q62386).
T1 sequence (Q62386 26-158): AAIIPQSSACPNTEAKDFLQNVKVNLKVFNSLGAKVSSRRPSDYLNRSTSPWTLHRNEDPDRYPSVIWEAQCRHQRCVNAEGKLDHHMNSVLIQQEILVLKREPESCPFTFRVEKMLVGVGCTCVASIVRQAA
The data set can be described thus: Peptide-IL-17A affinity test (SPR). It counts as binding. How it is done:
The peptide of the prior art HAP (SEQ ID NO:1) and peptide of SEQ ID NO:2 were tested for affinity for mIL-17A, as described below. For the immobilization of mouse IL-17A protein, amine coupling chemistry was used. […] Covalent immobilization of mIL17 results in stable attachment of 3000 RU of ligand to the surface. […] The molecules were diluted at different concentrations (from 62.5 to 1000 nM) in HBS-EP buffer and injected on the sensorchip for 4 minutes and allowed to dissociate for 5 minutes. After each run, the sensorchip was regenerated by 2 M NaCl injection. Based on the sensorgrams (FIG. 1, panel A) and using the BIAevaluation software, the Scatchard analysis of the RU values at equilibrium allowed to determine an affinity constant as a function of the analyte concentration in solution (FIG. 6, panel B).

The test system of data set [1] is human corneal epithelial cells (hCEPIC). Briefly: Permeability test across stratified human corneal epithelial cells. It counts as in vitro ADME. How it is done: (§1) The objective of this study was to evaluate the apparent permeability coefficient (Papp) value of the peptides across stratified human corneal epithelial cells. All peptides were tested at 50 μM in duplicate.
(§2) In particular, human corneal epithelial cells (hCEPIC) were stratified on Transwell cell culture inserts (Corning, N.Y., USA). The permeation experiments were performed taking samples from receiver chambers at 5, 30, 60 minutes time points and from donor chambers at the same time points. Each aliquot collected was analyzed by HPLC instrument (Knauer) equipped with C18 Vertex Plus Column (Knauer) thermostatically controlled at 40° C. The rate (apparent permeability coefficient, Papp) of the study compounds was calculated and compared to the Papp values of the low and high permeability markers, 6-carboxyfluorescein and Rhodamine B, respectively.
(§3) The apparent permeability coefficient (Papp) was calculated according to Equation: Papp=(I/A*C0)(dM/dt)
(§4) where dM/dt is the flux (nanomoles per second) across the cell layers;
(§5) A (square centimeters) is the exposed surface area of the insert membrane;
(§6) C0 is the initial drug concentration (micromolar) in the donor compartment at t=0 (Xiang et al., Drug Metab Dispos. 2009 May; 37(5):992-8.

Test in data set [2]: as above
The data set is classed as in vitro ADME. How it is done:
as §1, §2, §3, §4, §5, §6

Data set [3] can be described thus: Isoelectric point, log D and log P (SiriusT3). It counts as physicochemical. The note with it: for IP (isoelectric point): 25±1° C., 0.15 M KCl; for logP: octanol/ISA water, read-out: logP; for logD: pH 7.4, pH 7.4, octanol/ISA water, read-out: Log D (7.4).
Data set [4] is classed as physicochemical. The note with it: pH 7.8. An outline of the steps:
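Peptides dissolved in phosphate buffer pH 7.8 as 10 mM stocks (more dilute for less soluble ones) and stored at 25 °C. Content measured by reversed-phase UHPLC (C18, 0.5% formic acid water/acetonitrile gradient, DAD 220-400 nm, ESI-MS ion trap) after 1:100 dilution to 100 μM, against 100 μM standards, at T0, 3 days and 1 week.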

For data set [5], the target named is IL-17RA/IL17RC dimerization induced by IL-17A (Homo sapiens, UniProt Q16552). Briefly: IL-17RA/IL17RC dimerization assay in response to IL-17A (PathHunter Cytokine Receptor Assay). The note with it: IL-17A at EC80; read-out: IC50 in IL-17RA/IL7RC dimerization assay. The data set is classed as cell-based. An outline of the steps: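 PathHunter cells with IL-17RA and IL-17RC tagged for β-galactosidase complementation were preincubated 60 min with peptide (1% vehicle). IL-17A was then added at EC80 for 6–16 h at 37 °C, and chemiluminescence was read. Inhibition is relative to the EC80 and vehicle controls.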
IL-17RA/IL17RC dimerization induced by IL-17A, sequence (Q16552 24-155): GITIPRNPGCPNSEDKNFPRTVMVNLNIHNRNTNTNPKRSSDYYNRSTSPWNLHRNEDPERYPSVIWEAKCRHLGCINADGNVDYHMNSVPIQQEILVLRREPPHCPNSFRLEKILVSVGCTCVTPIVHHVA

In data set [6] the test system is Immortalized Human Corneal Epithelial cell line (I-HCEC). The data set can be described thus: In vitro evaluation of expression of inflammatory cytokines in I-HCEC (real-time PCR). The data set is classed as cell-based. The note with it: 0.01-500 μM, 24 hours.
Procedure: The tests were conducted on Immortalized Human Corneal Epithelial cell line (I-HCEC) (Innoprot, Bizkaia, Spain, Ref. P10871). […] The cell medium was supplemented with 5% Fetal Bovine Serum (FBS). Cells were seeded at 320000 cells/well 6 plate and 15000 cells/well 96 plate. […] The experiments were performed three times, each time in duplicate. The used probes from Thermo Fisher Scientific are: human CXCL8 (Hs00174103_m1), human IL6 (Hs00174131_m1), human TNFα (Hs99999043_m1). As housekeeping gene was used GAPDH (probe Hs02758991_g1). […] Untreated I-HCEC were used as negative control (Vehicle).
The subject of another data set is human TH17 cells. Briefly: Viability of human TH17 cells (Alamar blue). The data set is classed as cell-based. How it is done: (§7) At 24 h following stimulation, culture supernatants were analyzed for expression of IL-17, IL-6, IL-23, MMP3 and examined for viability using the fluorescence viability dye, Alamar blue. The CD4 cells secreted high levels of IL-17A in response to stimulation with an activation cocktail, indicating successful differentiation into Th17 cells. Additionally, stimulated cells secreted IL-6, IL23 and MMP3.
(§8) Supernatant was removed and replaced with 200 μL of diluted peptide or vehicle (CGM+DMSO diluted as with TI concentration) in appropriate groups. Cells were incubated with peptide test items for 1 hour before stimulation. The following stimulation solutions were generated: 10× Cell Activation Cocktail: Diluted from 500× to 10× working solution in CGM. 22 μL of appropriate stimulants were added to wells 1 hr after TI addition. Finally, 25 μL of Alamar blue reagent (10×) was added to each well 20 hours after stimulant (4 hrs prior to 24 hr serum collection) to determine cell viability. 24 hrs After Stimulant, Alamar blue fluorescence was measured per manufacturer's instructions. Remaining Supernatants were collected for subsequent multiplex protein analyses. Expression levels of IL-6, IL-17, and IL-23 as well as MMP3 in 24 hour stimulated culture supernatants was evaluated using a Luminex Multiplex Platform on a MAGPIX instrument.
In general terms: Alamar Blue is a resazurin reagent that responds to reducing activity.

The subject of data set [7] is human differentiated TH17 cells. Briefly: Cytokine and metalloproteinase secretion by human differentiated and activated TH17 cells. It counts as cell-based. The note with it: 24 h after stimulation, supernatant.
Text: To evaluate the effect of the peptides of the invention on the target cells responsible for inflammation in ophtalmic or dermatological pathologies, we tested the ability of the peptide of SEQ ID NO: 18 to inhibit in vitro pro-inflammatory cytokines and metalloproteinases secretion by human Th17 cells.
Human primary CD4 T-cells were differentiated into Th17 cells in vitro by culturing the cells in Th17 differentiation medium for 10 days. In details, purified human peripheral blood CD4 T-cells were cultured in Th-17 differentiation medium (CellXVivo Human Th17, Tocris) per manufacturer's instructions. Briefly: 96-well tissue culture plates were coated with anti-CD3 and CD28 agonistic antibodies. Cells were counted via trypan blue exclusion and suspended at a concentration of 1E5 cells/ml in Th-17 differentiation medium. 0.2 mL of this suspension was plated into individual wells of a 96-well plate. Cells were incubated at 37° C. with 5% CO2 for 10 days, with media replaced as needed. Following 10-day Cell Differentiation, the peptides synthetized in Example 1, such as the peptide of Seq. ID No 18, were diluted to the appropriate concentration in CGM (cell growth medium, XVivo-15, Lonza). Cell plate was centrifuged at 300×g for 5 min, and Th17 differentiation medium was removed.
Following differentiation, the cells were stimulated with both an activation cocktail containing Phorbol 12-myristate 13-acetate and lonomycin in the presence of varying concentrations of test articles.
as §7
as §8, with “Remaining Supernatants were collected for subsequent multiplex protein analyses.” left out

Experimental findings from patent US11236129B2, “IL-17A binding peptides and medical uses thereof” (Dompe' Farmaceutici S.P.A., priority 2018, dated 2022) are described below.

“Also recorded” adds a separate entry of the source. Residues, ends and D or L forms follow the SMILES beside them.

What is called Papp is a coefficient for how fast a substance crosses the barrier. As usually defined, the logP is a log measure of how a compound divides between an organic and an aqueous phase. What is called solubility is how much of the substance goes into solution per volume. Higher therefore signals much dissolved substance. For `CC[C@H](C)[C@H](NC(=O)[C@H](Cc1c[nH]c2ccccc12)NC(=O)[C@H](CC(=O)O)NC(=O)[C@H](Cc1c[nH]c2ccccc12)NC(=O)[C@H](CC(C)C)NC(=O)[C@H](CC(=O)O)NC(=O)[C@H](C)NC(=O)[C@@H]1CCCN1C(=O)[C@@H](NC(=O)[C@@H](NC(=O)[C@@H](NC(=O)[C@H](Cc1c[nH]cn1)NC(=O)[C@@H](NC(C)=O)C(C)C)C(C)C)[C@@H](C)O)[C@@H](C)CC)C(=O)N[C@@H](CC(N)=O)C(=O)N[C@@H](CCCCN)C(N)=O` [SEQ ID NO: 2] (Ac-VHVTIPADLWDWINK-NH2), the “affinity for mouse IL-17A relative to SEQ ID NO: 1” value on mouse IL-17A (SPR) is listed as 28 fold. In addition, the Kd at mouse IL-17A (immobilized mIL-17A, 62.5 to 1000 nM peptide, read-out: Kdeq (SPR)) came out at 130 nM. Further, in [1], the “Permeability (Papp ± SE)” value is 28.86 and the “permeability compared to high permeability standard Rhodamine B (in words)” value is “good permeability”. For the same compound, the Papp in [2] (Permeability (Papp ± SE)) was found to be 28.8 ×10⁻⁶ cm/s. Moreover, the Papp in [2] (Permeability (Papp)) worked out at 28.9 ×10⁻⁶ cm/s. Besides, in [3], the “IP (isoelectric point)” value amounted to 5.14, the logP worked out at 0.99 and the logD was -0.56. In data set [4], this compound displayed a solubility above 10 mM. Also, the IC50 in [5] was below 200 nM. Moreover, in data set [6], the “expression of the measured inflammatory cytokines (IL-8, IL-6, TNF-α)” value is “does not change the expression; also recorded: does not show any effect”.
With `CC[C@H](C)[C@H](NC(=O)[C@H](Cc1c[nH]c2ccccc12)NC(=O)[C@H](CCC(=O)O)NC(=O)[C@H](Cc1ccc(O)cc1)NC(=O)[C@H](CC(C)C)NC(=O)[C@H](CC(=O)O)NC(=O)[C@H](C)NC(=O)[C@@H]1CCCN1C(=O)[C@@H](NC(=O)[C@@H](NC(=O)[C@@H](NC(=O)[C@H](CCSC)NC(=O)[C@@H](NC(C)=O)C(C)C)C(C)C)[C@@H](C)O)[C@@H](C)CC)C(=O)N[C@@H](CCC(=O)O)C(=O)N[C@@H](CCC(=O)O)C(N)=O` [SEQ ID NO: 18] (Ac-VMVTIPADLYEWIEE-NH2), in the data set with human TH17 cells, the cell viability result is given as “did not impair cell viability”. Also, in data set [3], the “IP (isoelectric point)” value is recorded as 3.55, the logP turned out to be 1.89 and the logD is -3.79. For the same compound, in [7], the “secretion of IL-6” value is listed as “significantly reduce”, the “secretion of IL-17A” value is given as “significantly reduce”, the “secretion of IL-23” value is “significantly reduce” and the “secretion of MMP3” value is “significantly reduce”. In data set [4], this compound yielded a solubility of at least 0.05 mM. For the same compound, the IC50 in data set [5] was below 400 nM.
